# Test results: patent publication US20220211861A1, “DRUG CONJUGATES AND METHODS OF USING SAME” (The Board of Trustees of the Leland Staford Junior …, priority 2019, published 2022)
# *1 amine or outer side, *2 acyl side, *3 side chain or, on linkers, in order; H or OH if unused. Where a SMILES comes first, the peptide text is derived from it. Bridges are numbered along the chain shown (N, C = ends). Roman numbers before positions name the chains, in order. [ ]: non-standard residue; d: D form. The star is where a group is joined. X1 = O=C([C@H](CCCn1nnc2c1-c1ccccc1CN([*:3])c1ccccc1-2)N[*:1])[*:2]; Dolaproine = CO[C@@H]([C@@H]1CCCN1)[C@@H](C)C(=O)O; X3 = O=C(CCC(=O)[*:1])NCCOCCOCCOCCC(=O)[*:2]; Dil = CC[C@H](C)[C@H](NC)[C@@H](CC(=O)O)OC; PABC = O=C(OCc1ccc(N[*:1])cc1)[*:2]; X2 = C[C@@H](N*)[C@@H](O)c1ccccc1; Cit = NC(=O)NCCC[C@H](N)C(=O)O; NMeV = CN[C@H](C(=O)O)C(C)C
# What was measured:
# U87MG cells = assay: Indirect (competition) binding assay displacing Alexa Fluor 488-labeled knottin; conditions: competing off 1 nM AF488-2.5F on U87MG cells
# Protocol: The binding affinity of the constructs described in Example 1 were measured using U87MG glioblastoma cells. Drug-free protein affinities were measured directly using Alexa Fluor 488-conjugaed proteins and drug conjugates were measured via a competition binding assay displacing Alexa Fluor 488-labeled K. All constructs tested bound to U87MG cells with low-nanomolar affinity (FIG. 9A-B).
# U87MG cells were detached using Enzyme-Free Cell Dissociation Buffer (Gibco). Next, 4×10^4 cells were incubated with 1 nM of Alexa Fluor 488 labeled knottin as a competitor and varying concentrations (0.01-500 nM) of KDC, KFDC, or KADC in IBB for 3 h at 4° C. to minimize internalization. Cells were pelleted and washed twice with 800 μL of PBSA (phosphate buffered saline containing 0.1% bovine serum albumin) and the fluorescence of remaining surface-bound protein was measured by flow cytometry using a Guava EasyCyte 8HT instrument (EMD Millipore). Resulting data were evaluated using FlowJo software (TreeStar Inc) and equilibrium dissociation constants (Kd) were determined using Prism software (GraphPad). Error bars represent the standard deviation of experiments performed in triplicate.
# [1] = tested on: U87MG glioblastoma hip xenografts; assay: Ex vivo biodistribution of AF680-labeled conjugates; type: in vivo, mice; conditions: radiant efficiency of excised organs
# Protocol: To further assess the tumor-to-background ratio, the uptake of fluorescently-labeled drug conjugate by each organ was measured ex vivo. Nude mice bearing U87MG glioblastoma hip xenografts were injected intravenously with Alexa Fluor 680-conjugated proteins. Mice were sacrificed after 3 or 24 h and organs were removed for imaging. […] Specifically, the liver, kidneys, spleen, pancreases, heart, lungs, bladder, quadriceps, and femur (FIG. 18).
# Mice bearing U87MG flank xenografts, as described above, were injected intravenously with 1.5 nmol of Alexa Fluor 680-labeled K, KFc, or KAb. Organs (tumor, liver, kidneys, spleen, pancreas, heart, lungs, bladder, quadriceps muscle, and bone) were collected at end points of 4 h and 24 h. Organs were imaged using an IVIS Spectrum (PerkinElmer). The fluorophore-conjugated protein was detected using excitation/emission wavelengths of 640 nm and 710 nm, respectively. All imaging analysis was performed using Living Image software (Caliper Life Sciences).
# U87MG hip xenografts = assay: Pilot therapeutic efficacy study, dosing 3 times per week for 3 weeks; type: in vivo, Nu/Nu mice
# Protocol: Using this treatment regimen as a starting point, a preliminary study was set up using 5 mice per treatment group. Mice were inoculated with 5×10^6 U87MG cells in the right flank and tumors were allowed to grow and establish until reaching an approximate area of 30 mm^2. Mice were then randomized into 1 of 4 treatment groups: PBS, KDC, KFDC, or KADC. To keep groups equivalent and provide the highest chance of efficacy for KDC despite its short circulatory half-life, all drug conjugate groups dosed 3 times per week for 3 weeks. Each dose contained the appropriate drug conjugate normalized to 2.38 nmol MMAE (˜0.6 mg/kg KDC, ˜5 mg/kg KFDC, ˜10 mg/kg KADC).
# [2] = Liver and kidney histology (H&E) of treated mice; type: in vivo; conditions: scored by independent pathologist, after the 60-day experiment
# Description: Despite the impressive in vivo efficacy of the KDCs, there are potential concerns of acute toxicity given its rapid renal filtration and high molar dose of MMAE. […] After the 60-day experiment, livers and kidneys were harvested from treated mice, fixed in 4% paraformaldehyde (PFA), then embedded in paraffin blocks for tissue sectioning. Sections were stained with hematoxylin and eosin to visualize cellular structures and scored by an independent pathologist for evidence of acute toxicity. Representative images shown in FIG. 26 were all free from indicators of toxicity and all samples were scored identically to healthy mice.
# [3] = tested on: RFP-expressing U87MG spheroids; assay: Confocal imaging of diffusion into tumor spheroids; type: cell-based; conditions: multiple z-heights
# Protocol: To verify this mechanism, an in-vitro setup was constructed to test and visualize differences in solid tumor diffusion. Solid tumor spheroids of RFP-expressing U87MG glioblastoma cells were grown in ultra-low adhesion 96-well plates. Spheroids were grown to until reaching a diameter of ˜750 μm then treated with 200 nM of AF488-labeled KDC, KFDC, or KADC and incubated for 4 h. […]
# To obtain a more quantitative comparison, the relative decay of green channel intensity was compared to red channel intensity from the constitutively expressed RFP. Because the red channel should be uniform, due to stable RFP expression, and is only attenuated by the optical density of the spheroid, this signal intensity was used to correct the signal intensity of the green channel.
# Spheroids of RFP-expressing U87MG cells were formed by seeding round-bottom, 96-well ultra-low adhesion plates (Corning) with 4×10^3 cells/well and centrifuging at 1000×g for 10 minutes. Spheroids were grown for 4 days, until reaching a diameter of 750 μm. Spheroids were then incubated in fresh media containing 200 nM of Alexa Fluor 488-conjugated KDC, KFDC, or KADC for 4 h. […] Quantification was performed using FIJI image analysis software. Intensity was calculated radially from the center of each spheroid and plotted as the relative ratio of green intensity corrected for the intensity of RFP as an attenuation control.
# [4] = tested on: RFP-expressing U87MG tumor spheroids; assay: Cell spheroid killing assay over time (IncuCyte); type: cell-based
# Protocol: Next, this in vitro model was modified to test if similar cell killing could be visualized in addition to confocal imaging experiments. Spheroids were treated with drug conjugates or MMAE at a range of concentrations. After incubating with drug conjugates for 5 d, media was replaced with fresh media containing SYTOX green. Fluorescence measured by a BioTek Synergy H4 microtiter plate reader was compared to spheroids treated with lysis buffer. […] To visualize this killing over time, spheroids treated with 50 or 100 nM of drug conjugates or MMAE were imaged every 4 h using an IncuCyte.
# Spheroids of RFP-expressing U87MG cells were formed by seeding round-bottom, 96-well ultra-low adhesion plates (Corning) with 4×10^3 cells/well and centrifuging at 1000×g for 10 minutes. Spheroids were grown for 2 days before replacing media with 200 μL of fresh media containing 10 nM Cytox Green (ThermoFisher) and 0, 50, or 100 nM KDC, KFDC, KADC, or MMAE. Spheroids were incubated in an IncuCyte S3 Live-Cell Analysis System for 5 d with images collected every 4 h.
smiles,measurement,setting,value
"CC[C@H](C)[C@@H]([C@@H](CC(=O)N1CCC[C@H]1[C@H](OC)[C@@H](C)C(=O)N[C@H](C)[C@@H](O)c1ccccc1)OC)N(C)C(=O)[C@@H](NC(=O)[C@H](C(C)C)N(C)C(=O)OCc1ccc(NC(=O)[C@H](CCCNC(N)=O)NC(=O)[C@@H](NC(=O)CCOCCOCCOCCNC(=O)CCC(=O)N2Cc3ccccc3-c3c(nnn3CCC[C@@H]3NC(=O)[C@@H]4CSSC[C@@H]5NC(=O)[C@H](C(C)C)NC(=O)[C@H](CSSC[C@H](NC(=O)CN)C(=O)N6CCC[C@H]6C(=O)N[C@@H](CCCNC(=N)N)C(=O)N6CCC[C@H]6C(=O)N[C@@H](CCCNC(=N)N)C(=O)NCC(=O)N[C@@H](CC(=O)O)C(=O)N[C@@H](CC(N)=O)C(=O)N6CCC[C@H]6C(=O)N6CCC[C@H]6C(=O)N[C@@H](CC(C)C)C(=O)N[C@@H]([C@@H](C)O)C(=O)N4)NC(=O)CNC(=O)[C@H](C)NC(=O)[C@H](CC(C)C)NC(=O)[C@H](CSSC[C@@H](C(=O)NCC(N)=O)NC(=O)[C@H](Cc4ccc(O)cc4)NC(=O)CNC(=O)[C@H](CC(N)=O)NC(=O)[C@@H]4CCCN4C(=O)CNC5=O)NC(=O)[C@H](CC(=O)O)NC(=O)[C@H](CO)NC(=O)[C@H](CC(=O)O)NC(=O)[C@H](CCC(N)=O)NC3=O)-c3ccccc32)C(C)C)cc1)C(C)C [KDC] (I: H-GCPRPRGDNPPLTC[X1]QDSDCLAGCVCGPNGYCG-NH2 / II: V[Cit][PABC][NMeV]V[Dil][Dolaproine]-X2; disulfide I:2-I:24, I:14-I:26, I:20-I:32; linker I:15-II:N via X3; N-terminus assumed)",Ki,U87MG cells,0.9 nM
same,organ uptake ex vivo,[1],higher kidney and bladder uptake
same,cytostatic effect maintained,U87MG hip xenografts; dose normalized to 2.38 nmol MMAE (0.6 mg/kg KDC),4 of 5
same,complete tumor regression,"U87MG hip xenografts; dose normalized to 2.38 nmol MMAE, 5 mice per group",1 of 5
same,"liver and kidney histology, acute toxicity",[2],no evidence of acute toxicity
same,green intensity in the center of each optical slice as a function of depth,[3],remains relatively constant
same,spheroid toxicity,"[4]; 50 or 100 nM, imaged every 4 h",~100%
same,potency when co-administered with unconjugated knottin,[4]; drug conjugate plus unconjugated knottin,equivalently effective with or without addition of unconjugated knottin
